Test results: patent publication US20090069373A1, “Quinoline Acids” (Wyeth, priority 2007, published 2009)

Key:
human LXRβ = target: T1, human LXRβ (Homo sapiens, UniProt P55055); assay: Ligand-binding test procedure for human LXRβ (3H T0901317 competition, flash plates); conditions: for Binding ratio a/b: IC50 (μM) LXRα binding/IC50 (μM) LXRβ binding; for IC50: biotinylated hLXRβ, tracer 3H T0901317
T1 construct: biotin (biotinylated; biotinylation tag not described); made in house; host or cells: E. coli
T1 sequence (P55055 1-460): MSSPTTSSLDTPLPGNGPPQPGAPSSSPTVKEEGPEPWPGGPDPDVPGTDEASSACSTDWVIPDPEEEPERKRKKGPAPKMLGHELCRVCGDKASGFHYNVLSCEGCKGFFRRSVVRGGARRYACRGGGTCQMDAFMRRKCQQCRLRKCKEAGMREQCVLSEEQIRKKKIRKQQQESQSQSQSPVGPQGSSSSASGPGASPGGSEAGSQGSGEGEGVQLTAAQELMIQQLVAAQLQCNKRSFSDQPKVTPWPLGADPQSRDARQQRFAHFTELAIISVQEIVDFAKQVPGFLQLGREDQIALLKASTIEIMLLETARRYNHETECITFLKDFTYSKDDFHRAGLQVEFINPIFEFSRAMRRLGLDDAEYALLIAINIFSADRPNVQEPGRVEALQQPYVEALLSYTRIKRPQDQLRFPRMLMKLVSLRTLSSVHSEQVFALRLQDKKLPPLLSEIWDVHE
Protocol: Ligand-Binding Test Procedure for Human LXRβ.
Receptor source: E. coli extract from cells expressing biotinylated hLXRβ. Extract was made in a similar buffer as above, but with 50 mM TRIS.
(§1) Washed streptavidin and coated flash plates with wash buffer.
(§2) Diluted receptor extract to give Bmax ˜4000 cpm and add to the wells.
(§3) Wrapped the plates in aluminum foil and stored them at +4° C. over night.
(§4) Made a dilution series in DMSO of the test ligands.
(§5) Made a 5 nM solution of the radioactive tracer in buffer.
(§6) Mixed 250 μl diluted tracer with 5 μl of the test ligand from each concentration of the dilution series.
(§7) Washed the receptor-coated flash plates.
(§8) Added 200 μl per well of the ligand/radiolabel mixture to the receptor-coated flash plates.
(§9) Wrapped the plates in aluminum foil and incubate at +4° C. over night.
(§10) Aspirated wells, and wash the flashed plates. Sealed the plate.
(§11) Measured the remaining radioactivity in the plate.

human LXRα = target: T2, human LXRα (Homo sapiens, UniProt Q13133); assay: Ligand-binding test procedure for human LXRα (3H T0901317 competition, flash plates); conditions: biotinylated hLXRα, tracer 3H T0901317
T2 construct: biotin (biotinylated; biotinylation tag not described); made in house; host or cells: E. coli
T2 sequence (Q13133 1-447): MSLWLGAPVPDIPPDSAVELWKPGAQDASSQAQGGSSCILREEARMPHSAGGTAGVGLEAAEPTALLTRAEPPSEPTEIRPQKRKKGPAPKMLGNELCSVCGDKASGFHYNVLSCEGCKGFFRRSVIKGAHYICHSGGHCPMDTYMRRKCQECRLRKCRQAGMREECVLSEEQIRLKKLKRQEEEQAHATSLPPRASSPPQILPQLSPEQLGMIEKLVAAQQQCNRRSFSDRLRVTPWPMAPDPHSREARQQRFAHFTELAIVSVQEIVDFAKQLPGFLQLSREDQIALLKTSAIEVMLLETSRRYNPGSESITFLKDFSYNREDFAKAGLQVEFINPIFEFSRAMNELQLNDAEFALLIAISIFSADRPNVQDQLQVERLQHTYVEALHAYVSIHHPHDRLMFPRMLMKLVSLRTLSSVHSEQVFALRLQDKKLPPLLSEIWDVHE
Protocol: Ligand-Binding Test Procedure for Human LXRα.
Receptor source: E. coli extract from cells expressing biotinylated hLXRα. Extract was made in a similar buffer as above, but with 50 mM TRIS.
as §1, §2, §3, §4, §5, §6, §7, §8, §9, §10, §11

SMILES | Binding ratio a/b (human LXRβ) | IC50 (human LXRβ) [nM] | IC50 (human LXRα) [nM]
O=C(O)c1cccc2c(NCc3cccc(-c4ccnc5c(C(F)(F)F)cccc45)c3)cccc12 [Example 48, 5-({3-[8-(trifluoromethyl)quinolin-4-yl]benzyl}amino)-1-naphthoic acid] | 6 | 538 | 3270
O=C(O)c1c(NCc2cccc(-c3c(Cc4ccccc4)cnc4c(C(F)(F)F)cccc34)c2)cccc1C(F)(F)F [Example 49, 2-({3-[3-benzyl-8-(trifluoromethyl)quinolin-4-yl]benzyl}amino)-6-(trifluoromethyl)benzoic acid] | 6 | 66 | 393
O=C(O)c1ccc(F)c(NCc2cccc(-c3c(Cc4ccccc4)cnc4c(C(F)(F)F)cccc34)c2)c1 [Example 52, 3-({3-[3-benzyl-8-(trifluoromethyl)quinolin-4-yl]benzyl}amino)-4-fluorobenzoic acid] | 6 | 249 | 1380
O=C(O)c1c(F)cccc1NCc1cccc(-c2c(Cc3ccccc3)cnc3c(C(F)(F)F)cccc23)c1 [Example 58, 2-({3-[3-benzyl-8-(trifluoromethyl)quinolin-4-yl]benzyl}amino)-6-fluorobenzoic acid] | 5 | 25 | 121
O=C(O)[C@@H]1CCCN1C(=O)c1cccc(COc2cccc(-c3c(Cc4ccccc4)cnc4c(C(F)(F)F)cccc34)c2)c1 [Example 59, 1-[3-({3-[3-benzyl-8-(trifluoromethyl)quinolin-4-yl]phenoxy}methyl)benzoyl]proline] | 5 | 98 | 467
O=C(O)C1CCN(C(=O)c2ccc(COc3cccc(-c4c(Cc5ccccc5)cnc5c(C(F)(F)F)cccc45)c3)cc2)CC1 [Example 60, 1-[4-({3-[3-benzyl-8-(trifluoromethyl)quinolin-4-yl]phenoxy}methyl)benzoyl]piperidine-4-carboxylic acid] | 5 | 38 | 178
O=C(O)Cc1ccc(NCc2cccc(-c3ccnc4c(C(F)(F)F)cccc34)c2)c2ccccc12 [Example 65, [4-({3-[8-(trifluoromethyl)quinolin-4-yl]benzyl}amino)-1-naphthyl]acetic acid] | 4 | 2050 | 8830
O=C(O)c1cc(Cl)c(OCc2cccc(-c3c(Cc4ccccc4)cnc4c(C(F)(F)F)cccc34)c2)c(Cl)c1 [Example 67, 4-({3-[3-benzyl-8-(trifluoromethyl)quinolin-4-yl]benzyl}oxy)-3,5-dichlorobenzoic acid] | 4 | 47 | 203
O=C(O)Cc1cccc2cc(OCc3cccc(-c4ccnc5c(C(F)(F)F)cccc45)c3)ccc12 [Example 68, [6-({3-[8-(trifluoromethyl)quinolin-4-yl]benzyl}oxy)-1-naphthyl]acetic acid] | 4 | 535 | 2290
Cc1cc(NCc2cc(-c3c(Cc4ccccc4)cnc4c(C(F)(F)F)cccc34)cs2)c(C)cc1CC(=O)O [Example 70, {4-[({4-[3-benzyl-8-(trifluoromethyl)quinolin-4-yl]-2-thienyl}methyl)amino]-2,5-dimethylphenyl}acetic acid] | 4 | 2 | 7

Other lines, results leading:

Binding ratio a/b (human LXRβ) | IC50 (human LXRβ) [nM] | IC50 (human LXRα) [nM] | SMILES
6 | 4 | 20 | O=C(O)Cc1ccc(NCc2cccc(-c3c(Cc4ccccc4)cnc4c(C(F)(F)F)cccc34)c2)cc1Cl [Example 50, [4-({3-[3-benzyl-8-(trifluoromethyl)quinolin-4-yl]benzyl}amino)-2-chlorophenyl]acetic acid]
6 | 209 | 1170 | O=C(O)c1cccc(NCc2cccc(-c3c(Cc4ccccc4)cnc4c(C(F)(F)F)cccc34)c2)c1 [Example 51, 3-({3-[3-benzyl-8-(trifluoromethyl)quinolin-4-yl]benzyl}amino)benzoic acid]
5 | 95 | 510 | Cc1cc(C(=O)O)ccc1NCc1cccc(-c2c(Cc3ccccc3)cnc3c(C(F)(F)F)cccc23)c1 [Example 53, 4-({3-[3-benzyl-8-(trifluoromethyl)quinolin-4-yl]benzyl}amino)-3-methylbenzoic acid]
5 | 62 | 321 | O=C(O)[C@@H]1CCCN1C(=O)c1ccc(COc2cccc(-c3c(Cc4ccccc4)cnc4c(C(F)(F)F)cccc34)c2)cc1 [Example 54, 1-[4-({3-[3-benzyl-8-(trifluoromethyl)quinolin-4-yl]phenoxy}methyl)benzoyl]proline]
5 | 365 | 1810 | COc1cccc(NCc2cccc(-c3c(Cc4ccccc4)cnc4c(C(F)(F)F)cccc34)c2)c1C(=O)O [Example 55, 2-({3-[3-benzyl-8-(trifluoromethyl)quinolin-4-yl]benzyl}amino)-6-methoxybenzoic acid]
5 | 55 | 267 | O=C(O)Cc1cccc2cc(OCc3cccc(-c4c(Cc5ccccc5)cnc5c(C(F)(F)F)cccc45)c3)ccc12 [Example 57, [6-({3-[3-benzyl-8-(trifluoromethyl)quinolin-4-yl]benzyl}oxy)-1-naphthyl]acetic acid]
5 | 145 | 681 | O=C(N[C@@H](Cc1c[nH]cn1)C(=O)O)c1ccc(COc2cccc(-c3c(Cc4ccccc4)cnc4c(C(F)(F)F)cccc34)c2)cc1 [Example 61, N-[4-({3-[3-benzyl-8-(trifluoromethyl)quinolin-4-yl]phenoxy}methyl)benzoyl]histidine]
5 | 27 | 125 | Cc1ccc(CC(=O)O)cc1OCc1cccc(-c2c(Cc3ccccc3)cnc3c(C(F)(F)F)cccc23)c1 [Example 62, [3-({3-[3-benzyl-8-(trifluoromethyl)quinolin-4-yl]benzyl}oxy)-4-methylphenyl]acetic acid]
5 | 332 | 1530 | Cn1c(C(=O)O)cc2cc(NCc3cccc(-c4c(Cc5ccccc5)cnc5c(C(F)(F)F)cccc45)c3)ccc21 [Example 63, 5-({3-[3-benzyl-8-(trifluoromethyl)quinolin-4-yl]benzyl}amino)-1-methyl-1H-indole-2-carboxylic acid]
4 | 813 | 3520 | Cc1cc(NCc2cscc2-c2c(Cc3ccccc3)cnc3c(C(F)(F)F)cccc23)c(C)cc1CC(=O)O [Example 64, {4-[({4-[3-benzyl-8-(trifluoromethyl)quinolin-4-yl]-3-thienyl}methyl)amino]-2,5-dimethylphenyl}acetic acid]
4 | 454 | 1950 | C#CCC(C(=O)O)c1cccc2c(OCc3cccc(-c4ccnc5c(C(F)(F)F)cccc45)c3)cccc12 (stereo not drawn) [Example 66, 2-[5-({3-[8-(trifluoromethyl)quinolin-4-yl]benzyl}oxy)-1-naphthyl]pent-4-ynoic acid]
4 | 71 | 276 | O=C(O)Cc1ccc2c(OCc3cccc(-c4c(Cc5ccccc5)cnc5c(C(F)(F)F)cccc45)c3)cccc2c1 [Example 69, [5-({3-[3-benzyl-8-(trifluoromethyl)quinolin-4-yl]benzyl}oxy)-2-naphthyl]acetic acid]
4 | 558 | 2060 | Cc1ccc(NCc2cccc(-c3c(Cc4ccccc4)cnc4c(C(F)(F)F)cccc34)c2)c(C(=O)O)c1 [Example 71, 2-({3-[3-benzyl-8-(trifluoromethyl)quinolin-4-yl]benzyl}amino)-5-methylbenzoic acid]
